Reference: EP1377579B1 (Aventis Pharmaceuticals Inc., priority 2000, dated 2002)
Where a name gives a salt, the structure may show the parent alone. Read-outs that look alike come from different tables or passages of the source.

Legend:
cdk4/cyclin D1 = cdk4/cyclin D1 (Homo sapiens, UniProt P11802); experiment: Cyclin-dependent kinase assay, cdk4/cyclin D1; type: biochemical; settings: cyclin D1/cdk4; GST-pRb substrate, 10 µM ATP
PC-3 = experiment: In vitro proliferation assay (MTT), PC-3; type: cell-based, human; settings: Homo sapiens
Outline: (§1)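 Cells plated at 1000 to 2500 cells/well, allowed to attach overnight, then exposed to compounds for 3 days. Viable cells estimated by MTT dye, solubilized in DMSO, absorbance at 570 nm; IC50 taken from raw data.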

HL-60 = experiment: In vitro proliferation assay (MTT), HL-60; type: cell-based; settings: Homo sapiens
Experimental: (§2) The proliferation of tumor cells can be measured using a tetrazolium salt-based assay known as the MTT (3-[4,5-Dimethylthiazol-2-yl]-2,5-diphenyltetrazolium bromide) assay. The proliferation test is performed essentially as described by Carmichael et al., Cancer Res. 47: 936-942, 1987. For the assay, the cell lines are plated onto 96 well plates at 1000 to 2500 cells/well (depending on the properties of the individual cell lines), left to attach and recover overnight. […] After 3 days, the cells are incubated with MTT dye (3-[4,5-Dimethylthiazol-2-yl]-2,5-diphenyltetrazolium bromide, Sigma # M5655, 10 mg/ml in Hank's Buffered Saline) to estimate the amount of live cells remaining vs. concentration for the test compounds. Specifically, MTT solution is added to a final concentration of […] and the plates incubated at 37 C for 2 to 4 hr. The MTT and culture medium is then removed from the cultures and 200 µl of DMSO is added to solubilize the dye from the cell layer. The absorbance at 570 nm is determined for each culture using a Spectramax plate reader (Molecular Devices).
(§3) IC50s were determined from the raw data from either the MTT or SRB assays.
(§4) All of the cell lines were obtained from American Type Tissue Collection, with the ATCC accession number in parentheticals. MCF-7 and MDA-MB-231 cells were grown in improved minimum essential medium (Biofluids) without phenol red, supplemented with 5 % fetal bovine serum, 0.01 mg/ml gentamicin and 3 mM L-glutamine. All of the other cell lines were grown in RPMI 1640 medium (Life Technologies) supplemented with 5 % fetal bovine serum, 0.01 mg/ml gentamicin and 3 mM L-glutamine TABLE 3

Colo-205 = experiment: In vitro proliferation assay (MTT), Colo-205; type: cell-based; settings: Homo sapiens
Experimental: as §2, §3

NCI-H460 = experiment: In vitro proliferation assay (MTT), NCI-H460; type: cell-based; settings: Homo sapiens
Experimental: as §2, §3, §4

Jurkat = experiment: In vitro proliferation assay (MTT), Jurkat; type: cell-based; settings: Homo sapiens, read-out: Jurkat Leuk. (IC50 µM)
Experimental: as §2, §3, §4

cdk2/cyclin E = cdk2/cyclin E (Homo sapiens, UniProt P24941); experiment: Cyclin-dependent kinase assay, cdk2/cyclin E; settings: CDK2 IC50, nM, GST-pRb substrate, 10 µM ATP
cdk1/cyclin B = cdk1/cyclin B (Homo sapiens, UniProt P06493); experiment: Cyclin-dependent kinase assay, cdk1/cyclin B; settings: CDK1 IC50, nM, Histone H1, 10 µM ATP
Experimental: The IC50 values for cdk1/cyclin B, cdk2/cyclin E, and cdk4/cyclin D1 inhibition are determined using the following methods: • The cdk1 sequence (accession number Y00272) is amplified by PCR and cloned into the BamHI and SalI sites of pFASTBAC1 (Life Technologies).
The cyclin B1 sequence (accession number M25753) is amplified by PCR and cloned into the BamHI and SalI sites of pFASTBAC1 (Life Technologies).
The insect cell (Sf9) expression is optimized for each of the CDK/cyclin pairs according to the manufacturer's protocols (Life Technologies). For cdk4-HA/cyclin D1-His6 an infection of 0.1 multiplicity of infection (MOI) for 48 hours gives the best expression levels of the complex as well as activity.
The viruses are added to the cells and the culture is incubated at 27°C for the desired time. The cells are harvested by centrifugation at 3000 rpm for 10 minutes. The cells are snap frozen on dry ice and stored at - 80°C.
Cell extracts are made following a standard procedure. The cell pellet is resuspended in lysis buffer (50 mM HEPES, pH 8.0, 10 mM MgCl2, 1 mM DTT, 2.5 mM EGTA, 1 mM EDTA, 10 mM β-glycerophosphate, 1 mM sodium vanadate, 1 mM sodium fluoride, 1 x Protease inhibitor cocktail). The cells are lysed using the microfluidizer (Microfluidics) for 20 minutes. Cell debris is removed by centrifugation at 100,000 x g. The cell extracts are aliquoted in 1 ml aliquots, frozen on dry ice, and stored at -80°C.
The kinase reactions are performed following a standard procedure. The enzyme and inhibitor are diluted in kinase buffer (50 mM HEPES, pH 8.0, 10 mM MgCl2, 2.5 mM EGTA, 10 mM β-glycerophosphate, 1 mM sodium vanadate, 1 mM sodium fluoride, and 1 mM DTT) and pre-incubated for 30 minutes. […] The cdk1 enzyme activity is assayed using Histone H1 (Sigma) in the presence of 10 µM ATP for 30 min at room temperature. The reactions are terminated by the addition of 50 µL of 10 mM cold ATP to stop the reactions. The reactions are transferred to a pre-soaked 96-well multi-screen plate containing 30 µL of 100% TCA per well. After incubation for one hour at room temperature, the plates are washed twice with 200 µl of 20% TCA, followed by 200 µl of 10% TCA and finally with 200 µl of 5% TCA. After drying the plates at room temperature, the filter plates are placed in adapter plates (Packard) and 40 µl of Microscint-O® (Packard) is added to each well. Top Seal A film is used to cover the plates before counting in a Top Count Scintillation Counter.
The % remained activity of the indicated Cdk/cyclin kinase complex in the presence of inhibitor is calculated by the ratio of cpm in the presence of inhibitor to cpm in the absence of inhibitor (%Activity = vi/vo x 100%).

MDA-MB-435 = experiment: In vitro proliferation assay (MTT), MDA-MB-435; type: cell-based, human; settings: Homo sapiens
Outline: as §1

[1] = PC-3, MTT assay, value (SD, n) where given, read-out: PC-3 Prostate (IC50 µM)
[2] = HL-60, MTT assay, value (SD, n) where given, read-out: HL-60 Leuk. (IC50 µM)
[3] = COLO 205, MTT assay, value (SD, n) where given, read-out: Colo-205 Colon (IC50 µM)
[4] = NCI-H460, MTT assay, value (SD, n) where given, read-out: H-460 Lung (IC50 µM)
[5] = MTT assay, value (SD, n) where given
[6] = MDA-MB-435, MTT assay, value (SD, n) where given, read-out: MB-435 Breast (IC50 µM)

Sequence of cdk4/cyclin D1 (P11802 whole entry): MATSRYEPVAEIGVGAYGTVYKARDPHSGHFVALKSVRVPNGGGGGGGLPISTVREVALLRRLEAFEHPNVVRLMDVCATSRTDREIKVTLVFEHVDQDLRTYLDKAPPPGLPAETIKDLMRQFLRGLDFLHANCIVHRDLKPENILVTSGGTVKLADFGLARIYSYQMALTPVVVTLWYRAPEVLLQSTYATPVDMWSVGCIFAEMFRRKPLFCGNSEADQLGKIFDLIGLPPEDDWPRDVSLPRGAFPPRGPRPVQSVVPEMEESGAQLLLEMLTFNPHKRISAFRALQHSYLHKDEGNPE
Sequence of cdk4/cyclin D1 (P24385 whole entry partner): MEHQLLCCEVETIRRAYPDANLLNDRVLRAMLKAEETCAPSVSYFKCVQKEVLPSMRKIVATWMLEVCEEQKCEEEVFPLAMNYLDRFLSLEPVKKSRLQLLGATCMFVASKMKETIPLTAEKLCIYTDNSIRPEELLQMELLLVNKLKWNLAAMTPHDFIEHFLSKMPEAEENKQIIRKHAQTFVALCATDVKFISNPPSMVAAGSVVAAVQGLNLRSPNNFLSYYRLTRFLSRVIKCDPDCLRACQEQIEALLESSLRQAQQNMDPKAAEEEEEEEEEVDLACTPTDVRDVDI
Sequence of cdk1/cyclin B (P06493 whole entry): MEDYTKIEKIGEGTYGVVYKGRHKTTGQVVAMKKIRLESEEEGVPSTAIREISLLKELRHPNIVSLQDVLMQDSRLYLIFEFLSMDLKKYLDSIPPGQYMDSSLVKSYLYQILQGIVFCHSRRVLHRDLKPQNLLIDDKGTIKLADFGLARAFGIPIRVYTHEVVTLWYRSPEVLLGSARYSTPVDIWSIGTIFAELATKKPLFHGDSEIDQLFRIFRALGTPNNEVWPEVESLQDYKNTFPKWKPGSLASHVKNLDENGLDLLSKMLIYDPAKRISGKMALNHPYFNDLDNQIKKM
Sequence of cdk1/cyclin B (P14635 whole entry partner): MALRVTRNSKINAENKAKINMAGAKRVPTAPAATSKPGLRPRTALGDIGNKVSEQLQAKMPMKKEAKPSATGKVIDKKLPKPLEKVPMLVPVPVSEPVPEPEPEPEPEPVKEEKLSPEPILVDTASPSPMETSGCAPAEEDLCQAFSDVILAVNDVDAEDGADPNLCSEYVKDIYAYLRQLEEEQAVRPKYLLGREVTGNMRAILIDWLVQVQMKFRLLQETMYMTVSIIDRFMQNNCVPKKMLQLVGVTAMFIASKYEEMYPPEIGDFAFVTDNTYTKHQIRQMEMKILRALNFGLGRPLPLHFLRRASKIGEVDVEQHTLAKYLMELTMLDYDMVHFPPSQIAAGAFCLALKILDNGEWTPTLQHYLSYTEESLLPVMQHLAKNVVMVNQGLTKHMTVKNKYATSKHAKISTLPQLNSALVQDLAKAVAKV

| SMILES | IC50 (cdk4/cyclin D1) [nM] | IC50 (PC-3; [1]) [µM] | IC50 (HL-60; [2]) [µM] | IC50 (Colo-205; [3]) [µM] | IC50 (NCI-H460; [4]) [µM] | IC50 (Jurkat; [5]) [µM] | IC50 (cdk2/cyclin E) [nM] | IC50 (cdk1/cyclin B) [nM] | IC50 (MDA-MB-435; [6]) [µM] | IC50 (PC-3; PC-3, read-out: PC-3 Prostate (IC50 µM)) [µM] | IC50 (HL-60; HL-60, read-out: HL-60 Leuk. (IC50 µM)) [µM] | IC50 (Colo-205; COLO 205, read-out: Colo-205 Colon (IC50 µM)) [µM] | IC50 (NCI-H460; NCI-H460, read-out: H-460 Lung (IC50 µM)) [µM] | IC50 (Jurkat) [µM] | IC50 (MDA-MB-435; MDA-MB-435, read-out: MB-435 Breast (IC50 µM)) [µM] |
| --- | --- | --- | --- | --- | --- | --- | --- | --- | --- | --- | --- | --- | --- | --- | --- |
| N[C@H]1CC[C@H](Nc2nc(NC3CCN(C(=O)NC45CC6CC(CC(C6)C4)C5)CC3)c3ncn(C4CCCC4)c3n2)CC1 (relative stereo) [compound 181, trans-4-[2-(4-Amino-cyclohexylamino)-9-cyclopentyl-9H-purin-6-ylamino]-piperidine-1-carboxylic acid adamantan-1-ylamide dihydrochloride] | 1300 | 0.25 | 0.06 | 0.04 | 0.29 | 0.33 | 548 | 67 | 0.24 | – | – | – | – | – | – |
| CCCCOC(=O)N1CCC(Nc2nc(N[C@H]3CC[C@H](N)CC3)nc3c2ncn3C2CCCC2)CC1 [compound 92, trans-4-[2-(4-Amino-cyclohexylamino)-9-cyclopentyl-9H-purin-6-ylamino]-piperidine-1-carboxylic acid butyl ester dihydrochloride] | 2100 | 0.2 | 0.07 | 0.2 | 0.2 | 0.25 | 18 | 45 | 0.33 | – | – | – | – | – | – |
| CCOC(=O)N1CCC(Nc2nc(N[C@H]3CC[C@H](N)CC3)nc3c2ncn3C2CCCC2)CC1 [compound 93, trans-4-[2-(4-Amino-cyclohexylamino)-9-cyclopentyl-9H-purin-6-ylamino]-piperidine-1-carboxylic acid ethyl ester dihydrochloride] | 856 | 0.26 | 0.07 | 0.18 | 0.2 | 0.16 | 5 | 46 | 0.25 | – | – | – | – | – | – |
| N[C@H]1CC[C@H](Nc2nc(NC3CCN(C(=O)OCc4ccc([N+](=O)[O-])cc4)CC3)c3ncn(C4CCCC4)c3n2)CC1 [compound 94, trans-4-[2-(4-Amino-cyclohexylamino)-9-cyclopentyl-9H-purin-6-ylamino]-piperidine-1-carboxylic acid 4-nitro-benzyl ester dihydrochloride] | 827 | 0.13 | 0.06 | 0.07 | 0.14 | 0.18 | 69 | 27 | 0.14 | – | – | – | – | – | – |
| C=CCOC(=O)N1CCC(Nc2nc(N[C@H]3CC[C@H](N)CC3)nc3c2ncn3C2CCCC2)CC1 [compound 95, trans-4-[2-(4-Amino-cyclohexylamino)-9-cyclopentyl-9H-purin-6-ylamino]-piperidine-1-carboxylic acid allyl ester dihydrochloride] | 526 | 0.21 | 0.06 | 0.1 | 0.2 | 0.18 | 23 | 75 | 0.24 | – | – | – | – | – | – |
| N[C@H]1CC[C@H](Nc2nc(NC3CCN(C(=O)Oc4ccccc4[N+](=O)[O-])CC3)c3ncn(C4CCCC4)c3n2)CC1 [compound 99, trans-4-[2-(4-Amino-cyclohexylamino)-9-cyclopentyl-9H-purin-6-ylamino]-piperidine-1-carboxylic acid 2-nitro-phenyl ester dihydrochloride] | 1520 | – | – | – | – | – | 9 | 33 | – | 0.2 | < 0.02 | 0.05 | 0.16 | 0.11 | 0.12 |
| C=CCCOC(=O)N1CCC(Nc2nc(N[C@H]3CC[C@H](N)CC3)nc3c2ncn3C2CCCC2)CC1 [compound 100, trans-4-[2-(4-Amino-cyclohexylamino)-9-cyclopentyl-9H-purin-6-ylamino]-piperidine-1-carboxylic acid but-3-enyl ester dihydrochloride] | – | 0.22 | 0.05 | 0.11 | 0.17 | 0.19 | 50 | 60 | 0.25 | – | – | – | – | – | – |
| C#CCOC(=O)N1CCC(Nc2nc(N[C@H]3CC[C@H](N)CC3)nc3c2ncn3C2CCCC2)CC1 [compound 102, trans-4-[2-(4-Amino-cyclohexylamino)-9-cyclopentyl-9H-purin-6-ylamino]-piperidine-1-carboxylic acid prop-2-ynyl ester dihydrochloride] | 926 | 0.14 | < 0.02 | 0.14 | 0.2 | 0.11 | 42 | 31 | 0.19 | – | – | – | – | – | – |
| Cc1noc(C)c1S(=O)(=O)N1CCC(Nc2nc(N[C@H]3CC[C@H](N)CC3)nc3c2ncn3C2CCCC2)CC1 [compound 110, trans-N^2-(4-Amino-cyclohexyl)-9-cyclopentyl-N^6-[1-(3,5-dimethyl-isoxazole-4-sulfonyl)-piperidin-4-yl]-9H-purine-2,6-diamine dihydrochloride] | 158 | 0.76 | – | 0.25 | 0.65 | – | 9 | 27 | 0.44 | – | – | – | – | – | – |
| N[C@H]1CC[C@H](Nc2nc(NC3CCN(S(=O)(=O)c4cc(Cl)cc(Cl)c4O)CC3)c3ncn(C4CCCC4)c3n2)CC1 [compound 117, trans-2-{4-[2-(4-Amino-cyclohexylamino)-9-cyclopentyl-9H-purin-6-ylamino]-piperidine-1-sulfonyl}-4,6-dichloro-phenol dihydrochloride] | 558 | 34.1 | 24.2 | – | – | 43.6 | 31 | 290 | 39 | – | – | – | – | – | – |
| N[C@H]1CC[C@H](Nc2nc(NC3CCN(S(=O)(=O)c4ccc([N+](=O)[O-])cc4)CC3)c3ncn(C4CCCC4)c3n2)CC1 [compound 120, trans-N^2-(4-Amino-cyclohexyl)-9-cyclopentyl-N^6-[1-(4-nitro-benzenesulfonyl)-piperidin-4-yl]-9H-purine-2,6-diamine dihydrochloride] | – | 0.22 | < 0.02 | 0.1 | 0.27 | 0.19 | – | – | 0.2 | – | – | – | – | – | – |
| N[C@H]1CC[C@H](Nc2nc(NC3CCN(C(=O)Nc4ccc(F)cc4F)CC3)c3ncn(C4CCCC4)c3n2)CC1 [compound 166, trans-4-[2-(4-Amino-cyclohexylamino)-9-cyclopentyl-9H-purin-6-ylamino]-piperidine-1-carboxylic acid (2,4-difluoro-phenyl)-amide dihydrochloride] | – | 0.06 | 0.01 | 0.02 | 0.08 | 0.07 | – | – | 0.03 | – | – | – | – | – | – |
| N[C@H]1CC[C@H](Nc2nc(NC3CCN(C(=O)Nc4ccccc4Br)CC3)c3ncn(C4CCCC4)c3n2)CC1 [compound 168, trans-4-[2-(4-Amino-cyclohexylamino)-9-cyclopentyl-9H-purin-6-ylamino]-piperidine-1-carboxylic acid (2-bromo-phenyl)-amide dihydrochloride] | 111 | 0.19 | 0.04 | 0.16 | 0.19 | – | 52 | 29 | 0.15 | – | – | – | – | – | – |
